Laboratory results: patent US10590140B2, “Tetrahydropyrimidodiazepine and dihydropyridodiazepine compounds for treating pain and pain related conditions” (ESTEVE PHARMACEUTICALS, S.A., priority 2016, dated 2020)

Molecular target: human α2δ-1 subunit of Cav2.2 calcium channel (Homo sapiens (Human), UniProt P54289)
Experiment: Binding assay to human α2δ-1 subunit of Cav2.2 calcium channel ([3H]-Gabapentin)
Conditions: not given
Description: Binding Assay to Human α2δ-1 Subunit of Cav2.2 Calcium Channel.
NSB (non specific binding) was measured by adding 10 μM pregabalin. After 60 min incubation at 27° C., binding reaction was terminated by filtering through Multiscreen GF/C (Millipore) presoaked in 0.5% polyethyleneimine in Vacuum Manifold Station, followed by 3 washes with ice-cold filtration buffer containing 50 mM Tris-HCl, pH 7.4.
Filter plates were dried at 60° C. for 1 hour and 30 μl of scintillation cocktail were added to each well before radioactivity reading.

Sequence of human α2δ-1 subunit of Cav2.2 calcium channel (P54289 25-1103): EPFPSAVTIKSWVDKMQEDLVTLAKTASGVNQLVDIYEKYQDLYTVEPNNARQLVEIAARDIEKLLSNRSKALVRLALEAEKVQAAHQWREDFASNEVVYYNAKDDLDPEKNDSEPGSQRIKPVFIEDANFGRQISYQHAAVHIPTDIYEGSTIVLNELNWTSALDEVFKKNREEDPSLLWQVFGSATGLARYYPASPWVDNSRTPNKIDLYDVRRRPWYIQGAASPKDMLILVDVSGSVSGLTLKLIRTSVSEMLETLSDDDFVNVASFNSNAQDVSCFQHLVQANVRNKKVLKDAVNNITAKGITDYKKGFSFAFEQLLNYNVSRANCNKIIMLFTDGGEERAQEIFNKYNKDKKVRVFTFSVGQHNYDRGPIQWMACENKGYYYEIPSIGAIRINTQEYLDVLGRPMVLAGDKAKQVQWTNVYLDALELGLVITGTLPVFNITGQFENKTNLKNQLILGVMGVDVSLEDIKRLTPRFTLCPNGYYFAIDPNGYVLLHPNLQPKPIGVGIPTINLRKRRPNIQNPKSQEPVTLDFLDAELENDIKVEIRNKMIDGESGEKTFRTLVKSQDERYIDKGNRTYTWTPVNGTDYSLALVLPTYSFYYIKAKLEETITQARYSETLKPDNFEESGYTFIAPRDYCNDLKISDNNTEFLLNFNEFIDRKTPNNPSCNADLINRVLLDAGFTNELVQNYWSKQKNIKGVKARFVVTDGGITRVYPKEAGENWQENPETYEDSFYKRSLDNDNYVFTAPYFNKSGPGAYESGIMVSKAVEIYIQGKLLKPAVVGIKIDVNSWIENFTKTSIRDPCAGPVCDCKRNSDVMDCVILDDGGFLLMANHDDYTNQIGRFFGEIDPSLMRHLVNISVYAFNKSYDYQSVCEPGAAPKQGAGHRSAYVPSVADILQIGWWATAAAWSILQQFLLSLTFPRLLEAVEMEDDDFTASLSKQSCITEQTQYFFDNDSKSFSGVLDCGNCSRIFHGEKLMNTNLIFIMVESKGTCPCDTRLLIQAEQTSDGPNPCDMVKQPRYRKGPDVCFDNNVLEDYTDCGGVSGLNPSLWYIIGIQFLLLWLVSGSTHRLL

SMILES	Ki
CCNc1ncc2c(n1)N(C)CCN(c1cccc(CO[C@@H](CCNC)c3cccs3)c1)C2=O (stereo in doubt) [Example 213]	500 to 3000 nM

Same assay, conditions: binding to α2δ-1, [3H]-Gabapentin; read-out: Ki (nM) α2δ-1

SMILES	Ki
CSc1ncc2c(n1)N(C)CCN(c1cccc(OC(CCN(C)C(=O)OC(C)(C)C)c3cccs3)c1)C2=O (stereo not drawn) [Example 12, tert-butyl methyl(3-(3-(9-methyl-2-(methylthio)-5-oxo-5,7,8,9-tetrahydro-6H-pyrimido[4,5-e][1,4]diazepin-6-yl)phenoxy)-3-(thiophen-2-yl)propyl) carbamate]	> 3000 nM
CSc1ncc2c(n1)N(C)CCN(c1cccc(O[C@H](CCN(C)C(=O)OC(C)(C)C)c3cccs3)c1)C2=O [Example 13, tert-butyl (R)-methyl(3-(3-(9-methyl-2-(methylthio)-5-oxo-5,7,8,9-tetrahydro-6H-pyrimido[4,5-e] [1,4]diazepin-6-yl)phenoxy)-3-(thiophen-2-yl)propyl) carbamate]	> 3000 nM
CSc1ncc2c(n1)N(C)CCN(c1cccc(O[C@@H](CCN(C)C(=O)OC(C)(C)C)c3cccs3)c1)C2=O [Example 14, tert-butyl (S)-methyl(3-(3-(9-methyl-2-(methylthio)-5-oxo-5,7,8,9-tetrahydro-6H-pyrimido[4,5-e][1,4]diazepin-6-yl)phenoxy)-3-(thiophen-2-yl)propyl) carbamate]	> 3000 nM
CSc1ncc2c(n1)N(C)CCN(c1cccc(COC(CCN(C)C(=O)OC(C)(C)C)c3cccs3)c1)C2=O (stereo not drawn) [Example 15, tert-butyl methyl(3-((3-(9-methyl-2-(methylthio)-5-oxo-5,7,8,9-tetrahydro-6H-pyrimido[4,5-e][1,4]diazepin-6-yl)benzyl)oxy)-3-(thiophen-2-yl)propyl) carbamate]	> 3000 nM
CSc1ncc2c(n1)N(C)CCN(c1cccc(CO[C@H](CCN(C)C(=O)OC(C)(C)C)c3cccs3)c1)C2=O [Example 16, tert-butyl (R)-methyl(3-((3-(9-methyl-2-(methylthio)-5-oxo-5,7,8,9-tetrahydro-6H-pyrimido[4,5-e][1,4]diazepin-6-yl)benzyl)oxy)-3-(thiophen-2-yl)propyl) carbamate]	> 3000 nM
CSc1ncc2c(n1)N(C)CCN(c1cccc(CO[C@@H](CCN(C)C(=O)OC(C)(C)C)c3cccs3)c1)C2=O [Example 17, tert-butyl (S)-methyl(3-((3-(9-methyl-2-(methylthio)-5-oxo-5,7,8,9-tetrahydro-6H-pyrimido[4,5-e][1,4]diazepin-6-yl)benzyl)oxy)-3-(thiophen-2-yl)propyl) carbamate]	> 3000 nM
CSc1ncc2c(n1)N(C)CCN(c1cccc(COCC(c3ccccc3)N(C)C(=O)OC(C)(C)C)c1)C2=O (stereo not drawn) [Example 18, tert-butyl methyl(2-((3-(9-methyl-2-(methylthio)-5-oxo-5,7,8,9-tetrahydro-6H-pyrimido[4,5-e][1,4]diazepin-6-yl)benzyl)oxy)-1-phenylethyl) carbamate]	> 3000 nM
CSc1ncc2c(n1)N(C)CCN(c1cccc(COC(CN(C)C(=O)OCC[Si](C)(C)C)c3ccccc3)c1)C2=O (stereo not drawn) [Example 19, 2-(trimethyl-silyl)ethyl methyl(2-((3-(9-methyl-2-(methylthio)-5-oxo-5,7,8,9-tetrahydro-6H-pyrimido[4,5-e][1,4]diazepin-6-yl)benzyl)oxy)-2-phenylethyl) carbamate]	> 3000 nM

Further lines, results first:

Ki	SMILES
> 3000 nM	CSc1ncc2c(n1)N(C)CCN(c1cccc(OC(CCN(C)C(=O)OC(C)(C)C)c3ccccc3)c1)C2=O (stereo not drawn) [Example 1, tert-Butyl methyl(3-(3-(9-methyl-2-(methylthio)-5-oxo-5,7,8,9-tetrahydro-6H-pyrimido[4,5-e][1,4]diazepin-6-yl)phenoxy)-3-phenylpropyl) carbamate]
> 3000 nM	CSc1ncc2c(n1)N(C)CCN(c1cccc(O[C@H](CCN(C)C(=O)OC(C)(C)C)c3ccccc3)c1)C2=O [Example 2, tert-butyl (R)-methyl(3-(3-(9-methyl-2-(methylthio)-5-oxo-5,7,8,9-tetrahydro-6H-pyrimido[4,5-e][1,4]diazepin-6-yl)phenoxy)-3-phenylpropyl) carbamate]
> 3000 nM	CSc1ncc2c(n1)N(C)CCN(c1cccc(O[C@@H](CCN(C)C(=O)OC(C)(C)C)c3ccccc3)c1)C2=O [Example 3, tert-butyl (S)-methyl(3-(3-(9-methyl-2-(methylthio)-5-oxo-5,7,8,9-tetrahydro-6H-pyrimido[4,5-e][1,4]diazepin-6-yl)phenoxy)-3-phenylpropyl) carbamate]
> 3000 nM	CSc1ncc2c(n1)N(C)CCN(c1cccc(OC(CN(C)C(=O)OC(C)(C)C)c3ccccc3)c1)C2=O (stereo not drawn) [Example 4, tert-butyl methyl(2-(3-(9-methyl-2-(methylthio)-5-oxo-5,7,8,9-tetrahydro-6H-pyrimido[4,5-e][1,4]diazepin-6-yl)phenoxy)-2-phenylethyl) carbamate]
> 3000 nM	CSc1ncc2c(n1)N(C)CCN(c1cccc(OC(CNC(=O)OC(C)(C)C)c3ccccc3)c1)C2=O (stereo not drawn) [Example 5, tert-butyl (2-(3-(9-methyl-2-(methylthio)-5-oxo-5,7,8,9-tetrahydro-6H-pyrimido[4,5-e][1,4]diazepin-6-yl)phenoxy)-2-phenylethyl) carbamate]
> 3000 nM	CSc1ncc2c(n1)N(C)CCN(c1cccc(OC(C)CN(C)C(=O)OC(C)(C)C)c1)C2=O (stereo not drawn) [Example 6, tert-butyl methyl(2-(3-(9-methyl-2-(methylthio)-5-oxo-5,7,8,9-tetrahydro-6H-pyrimido[4,5-e][1,4]diazepin-6-yl)phenoxy)propyl) carbamate]
> 3000 nM	CSc1ncc2c(n1)N(C)CCN(c1cccc(OC(CN(C)C(=O)OC(C)(C)C)C(C)C)c1)C2=O (stereo not drawn) [Example 7, tert-butyl methyl(3-methyl-2-(3-(9-methyl-2-(methylthio)-5-oxo-5,7,8,9-tetrahydro-6H-pyrimido[4,5-e][1,4]diazepin-6-yl)phenoxy)butyl) carbamate]
> 3000 nM	CSc1ncc2c(n1)N(C)CCN(c1ccc(OC(CN(C)C(=O)OC(C)(C)C)c3ccccc3)cc1)C2=O (stereo not drawn) [Example 8, tert-butyl methyl(2-(4-(9-methyl-2-(methylthio)-5-oxo-5,7,8,9-tetrahydro-6H-pyrimido[4,5-e][1,4]diazepin-6-yl)phenoxy)-2-phenylethyl) carbamate]
> 3000 nM	CSc1ncc2c(n1)N(C)CCN(c1cccc(COC(CCN(C)C(=O)OC(C)(C)C)c3ccccc3)c1)C2=O (stereo not drawn) [Example 9, tert-butyl methyl(3-((3-(9-methyl-2-(methylthio)-5-oxo-5,7,8,9-tetrahydro-6H-pyrimido[4,5-e][1,4]diazepin-6-yl)benzyl)oxy)-3-phenylpropyl) carbamate]
> 3000 nM	CSc1ncc2c(n1)N(C)CCN(c1cccc(CO[C@H](CCN(C)C(=O)OC(C)(C)C)c3ccccc3)c1)C2=O [Example 10, tert-butyl (R)-methyl(3-((3-(9-methyl-2-(methylthio)-5-oxo-5,7,8,9-tetrahydro-6H-pyrimido[4,5-e][1,4]diazepin-6-yl)benzyl)oxy)-3-phenylpropyl) carbamate]
> 3000 nM	CSc1ncc2c(n1)N(C)CCN(c1cccc(CO[C@@H](CCN(C)C(=O)OC(C)(C)C)c3ccccc3)c1)C2=O [Example 11, tert-butyl (S)-methyl(3-((3-(9-methyl-2-(methylthio)-5-oxo-5,7,8,9-tetrahydro-6H-pyrimido[4,5-e][1,4]diazepin-6-yl)benzyl)oxy)-3-phenylpropyl) carbamate]

Same assay, conditions: read-out: Ki (nM) α2δ-1; Table 2, dual compounds; [3H]-Gabapentin binding

SMILES	Ki
CCNc1ncc2c(n1)N(C)CCN(c1cccc(CO[C@@H](CCNC)c3cccs3)c1)C2=O (stereo in doubt) [Example 213]	500 to 3000 nM
